{"source": "paper PMC8877061", "about": "“Antifungal and Antibiofilm Activity of Cyclic Temporin L Peptide Analogues against Albicans and Non-Albicans Candida Species” (Pharmaceutics, 2022)", "key": {"[1]": {"tested_on": "C. albicans ATCC 90028 biofilms", "assay": "Eradication of preformed biofilm, bright-field microscopy", "format": "cell-based", "details": "peptide 12.5 μM", "experimental": "(§1) Biofilm inhibition and eradication assays were performed as previously described in [37]. […] After the incubation period, non-adherent cells were detached by washing each sample three times in sterile PBS. Then, the samples were fixed, and the biofilms were stained with a 0.1% solution of crystal violet. To test the effect against the established biofilm, fresh growth medium containing peptides at the same concentrations was added in the preformed 24-h old biofilms and incubated for another 24 h. The total biomass was quantified by a crystal violet assay for the inhibition. The vital biomass was quantified by XTT for test eradication by using the tetrazolium 2,3-bis (2-methoxy-4-nitro-5 sulfophenyl)-5-[(phenylamine) carbonyl]-2H-hydroxide reduction assay (XTT) (Sigma-Aldrich, St. Luis, MO, USA) according to the manufacturer’s instructions. The absorbance was measured spectrophotometrically at 492 nm. The percentages of inhibition or eradication were calculated as follows: % biofilm reduction = Abs control − Abs sample/Abs control × 100.\nOptical microscopy images were acquired by using a Leica AF6000LX-DM6M-Z microscope (Leica Microsystems, Mannheim, Germany) controlled by LAS-X (Leica Application Suite; rel. 3.0.13) software and equipped with a Leica Camera DFC7000T. Images were acquired by focusing on the Petri dish surface with a 50× objective in a bright field. […]"}, "[2]": {"tested_on": "C. albicans preformed biofilm", "assay": "Eradication of preformed biofilm (XTT)", "format": "cell-based", "details": "peptide 6.25 μM, 24-h old biofilm, 24 h treatment", "experimental": "(§2) C. albicans ATCC 90028, C. auris DSM 21092, C. glabrata DSM 11226, C. tropicalis DSM11951 and C. parapsilosis DSM 4874 grown on YPD Agar (1% w/v yeast extract, 2% w/v peptone, 2% w/v glucose, 1.5% Agar) were cultured in Tryptone soya broth supplemented with 0.1% glucose for 16–18 h at 37 °C, washed twice using sterile phosphate-buffered saline (PBS) and standardized to […] as required for the experiments. RPMI1640 medium (Thermo Fisher Scientific, Waltham, MA, USA) buffered to a pH of 7.0 with 0.165 M MOPS was used for growing the biofilms of all Candida species.\nas §1, with “Then, the samples were fixed, and the biofilms were stained with a 0.1% solution of crystal violet. To test the effect against the established biofilm, fresh growth medium containing peptides at the same concentrations was added in the preformed 24-h old biofilms and incubated for another 24 h.” left out"}, "[3]": {"tested_on": "C. parapsilosis preformed biofilm", "assay": "Eradication of preformed biofilm (XTT)", "format": "cell-based", "details": "peptide 6.25 μM, 24-h old biofilm, 24 h treatment", "experimental": "as §2\nas §1, with “Then, the samples were fixed, and the biofilms were stained with a 0.1% solution of crystal violet. To test the effect against the established biofilm, fresh growth medium containing peptides at the same concentrations was added in the preformed 24-h old biofilms and incubated for another 24 h.” left out"}, "[4]": {"assay": "Peptide aggregation imaged by AFM on mica", "format": "physicochemical", "text": "XE-100 Atomic Force Microscopy (AFM) (by Park Systems, Suwon, Korea) was used for the imaging of the most promising peptide (3) with and without liposome interaction. Surface imaging was obtained in non-contact mode using SSS-NCHR 10 M (by Park Systems) Si/Al-coated cantilever with a sharp tip (typical tip radius: 2 nm, <5 nm max), a resonance frequency between 200 and 400 kHz and a nominal force constant of 42 N/m. […] The AFM images were processed and analyzed by the home software (XEI by Park Systems). The images were flattened to remove the background slope and adjusted in terms of contrast and brightness. For the sample preparation for AFM, the AFM imaging was performed on a substrate of a Muscovite mica surface (of about 1 cm^2 in area) that owned a root mean square (rms) surface roughness of less than 0.5 nm on a 1000 × 1000 nm^2 area. The 3-µL aliquots of the sample solutions were casted on mica immediately after cleavage with adhesive tape to establish their cleanliness and charge activity. In fact, after the cleavage, the K^+ ions bonding the mica layers were highly mobile, resulting in a positive overcharging of the mica surface, which enabled the deposition of molecules that held a […]. After 2 min, every sample was gently washed with deionized water to remove the sample excesses and then dried at room temperature under a ventilated fume hood."}, "[5]": {"assay": "Circular dichroism in liposomes mimicking fungal membranes", "format": "physicochemical", "details": "SUVs PE/PC/PI/ergosterol", "experimental": "The circular dichroism spectra of the selected peptides (3, 7, 15 and 16) were recorded in small unilamellar vesicles (SUVs) composed of PE/PC/PI/Ergosterol (5:4:1:2, w/w/w/w, final lipid concentration = 0.01 mM) and DOPC/Chol (70:30, ratio in moles, final lipid concentration = 0.1 mM), between 190 and 260 nm on a JASCO J-710 CD spectropolarimeter at 25 °C using quartz cells with a 0.1-cm path length. The SUVs were prepared as reported in the following protocol. Once the lipid films were prepared as described above, they were hydrated with a phosphate buffer (5 mM, pH 7.4) (DOPC:Chol) or water (PE/PC/PI/Ergosterol) for 1 h and sonicated for 40 min. […] We accumulated the data three times, and all spectral data were subtracted from the background. Each spectrum converted the signal to the mean molar ellipticity, and we calculated the ratio of the ellipticities at 222 and 208 nm to discriminate between the monomeric and oligomeric states of the helices. The helix content was calculated as follows: [θ]222/(−40,000[1 − 2.5/n)], where [θ]222 is the ellipticity measurement at 222 nm and n is the number of amino acid residues."}, "[6]": {"assay": "Peptide aggregation by Thioflavin T fluorescence in LUVs", "format": "physicochemical", "details": "LUVs PE/PC/PI/ergosterol 0.1 mM, Tris-HCl/NaCl pH 7.4, 25 °C, titrated 5-50 μM peptide", "experimental": "The aggregation in the liposomes mimicking fungal membranes (5:4:1:2, w/w/w/w) was evaluated using Thioflavin T (ThT) as a dye probe. The lipid film was prepared by dissolving lipids in chloroform to have a final lipid concentration of 0.1 mM. Then, the solvent was removed under a nitrogen gas stream, and the film was freeze-dried overnight. Lipid films were hydrated with 100 mM NaCl, 10 mM Tris-HCl and a […] ThT buffer at a pH of 7.4 and then treated as described above to obtain LUVs. The LUVs were titrated with a peptide concentration of 5, 10, 15, 20, 30 and 50 μM, and ThT fluorescence was recorded before and after the addition of the peptide using the Varian Cary Eclipse fluorescence spectrometer at 25 °C. The samples were excited at 450 nm (slit width: 10 nm), and the fluorescence emission was recorded at 482 nm (slit width: 5 nm). Aggregation was quantified according to the equation %A = (Ff − F0)/(Fmax − F0) × 100, where Ff indicates the value of fluorescence after the peptide addition, F0 is the initial fluorescence before the addition of the peptide and Fmax is the fluorescence maximum obtained immediately after the peptide addition."}, "[7]": {"details": "absence of liposomes, peptide 50 μM"}}, "note": "Entries after “also recorded” stand apart in the source; their conditions may differ. Positions of bridges follow the written chain, without caps; N, C: chain ends. Non-standard residues stand in square brackets, D forms with d. Residues, ends and D or L forms follow the SMILES beside them. Triazole bridges read from a SMILES are 1,4-linked. Lys(N3) = [N-]=[N+]=NCCCC[C@H](N)C(=O)O; Pra = C#CC[C@H](N)C(=O)O"}
{"smiles": "CC[C@H](C)[C@H](NC(=O)[C@H](CCCNC(=N)N)NC(=O)[C@@H]1CCC(=O)NCCCC[C@H](NC(=O)[C@H](Cc2ccccc2)NC(=O)[C@H](Cc2c[nH]c3ccccc23)NC(=O)[C@@H]2CCCN2C(=O)[C@@H](NC(=O)[C@@H](N)Cc2ccccc2)C(C)C)C(=O)N[C@@H](CCCCN)C(=O)N[C@@H](Cc2ccccc2)C(=O)N[C@H](CC(C)C)C(=O)N1)C(=O)N[C@@H](CC(C)C)C(N)=O", "note": "[compound 3] (H-FVPWFKKF[dL]ERIL-NH2; lactam 6-10; N-terminus assumed)", "values": [{"measurement": "eradication effect on preformed C. albicans biofilms by optical microscopy", "setting": "[1]", "result": "effective in the eradication of biofilm"}, {"measurement": "eradication of preformed biofilm, C. albicans", "setting": "[2]", "result": 50, "unit": "%"}, {"measurement": "eradication of preformed biofilm, C. parapsilosis", "setting": "[3]", "result": 50, "unit": "%"}, {"measurement": "height of aggregates (clusters) on mica by AFM", "setting": "[4]; [7]", "result": "≤ 20", "unit": "nm"}, {"measurement": "width of aggregates (clusters) on mica by AFM", "setting": "[4]; [7]", "result": "up to 300 nm"}, {"measurement": "thickness of peptide layer on mica by AFM, presence of liposomes", "setting": "[4]; after interaction with liposomes mimicking fungal membranes", "result": 4, "unit": "nm"}]}
{"smiles": "CC[C@H](C)[C@H](NC(=O)[C@H](CCCNC(=N)N)NC(=O)[C@@H]1CSSC[C@H](NC(=O)[C@H](Cc2ccccc2)NC(=O)[C@H](Cc2c[nH]c3ccccc23)NC(=O)[C@@H]2CCCN2C(=O)[C@@H](NC(=O)[C@@H](N)Cc2ccccc2)C(C)C)C(=O)N[C@@H](CCCCN)C(=O)N[C@@H](Cc2ccccc2)C(=O)N[C@H](CC(C)C)C(=O)N1)C(=O)N[C@@H](CC(C)C)C(N)=O", "note": "[compound 16] (H-FVPWFCKF[dL]CRIL-NH2; disulfide 6-10; N-terminus assumed)", "values": [{"measurement": "conformation by CD in fungal membrane-like SUVs, 10 μM", "setting": "[5]; peptide 10 μM", "result": "random coil conformation; also recorded: random coil structure"}, {"measurement": "conformation by CD in fungal membrane-like SUVs, 50 μM", "setting": "[5]; peptide 50 μM", "result": "α-helical molecular aggregates"}]}
{"smiles": "CC(C)C[C@H](NC(=O)[C@@H]1CCCCn2cc(nn2)C[C@H](NC(=O)[C@H](CCCCN)NC(=O)[C@H](CO)NC(=O)[C@H](Cc2ccccc2)NC(=O)[C@H](Cc2c[nH]c3ccccc23)NC(=O)[C@@H]2CCCN2C(=O)[C@@H](NC(=O)[C@@H](N)Cc2ccccc2)C(C)C)C(=O)N[C@H](CC(C)C)C(=O)NCC(=O)N[C@@H](CCCNC(=N)N)C(=O)N1)C(N)=O", "note": "[compound 7] (H-FVPWFSK[Pra][dL]GR[Lys(N3)]L-NH2; triazole 8-12; N-terminus assumed)", "values": [{"measurement": "concentration of complete aggregation (ThT fluorescence)", "setting": "[6]", "result": 30, "unit": "µM"}]}
